Reference: publication PMC4306947, “Synthesis and Antiproliferative Activity of Thiazolyl-bis-pyrrolo[2,3-b]pyridines and Indolyl-thiazolyl-pyrrolo[2,3-c]pyridines, Nortopsentin Analogues” (Marine Drugs, 2015)

Assays:
[1] = system: MALME-3M; experiment: NCI-60 in vitro tumor cell screen, MALME-3M; type: cell-based; settings: Homo sapiens, Melanoma
Method: (§1) All the synthesized thiazoles 1a–l, 2a–j, 3a–f and 4a–f were evaluated by the National Cancer Institute (Bethesda MD) for cytotoxicity against the NCI-60 cell line panel using standard protocols. Initially, all derivatives were tested at a single dose (10^−5 M) on the full panel of approximately 60 human tumor cell lines derived from 9 human cancer cell types, that have been grouped in disease sub-panels including leukemia, non-small-cell lung, colon, central nervous system (CNS), melanoma, ovarian, renal, prostate and breast cancers (data not shown). Compounds 1k and 4c were further selected for full evaluation at five concentration levels (10^−4–10^−8 M).
(§2) The antitumor activity of compounds 1k and 4c was given by three parameters for each cell line: GI50 (GI50 is the molar concentration of the compound that inhibits 50% net cell growth), TGI (TGI is the molar concentration of the compound leading to total inhibition of net cell growth), and LC50 (LC50 is the molar concentration of the compound that induces 50% net cell death). The average values of mean graph midpoint (MG_MID) were calculated for each of these parameters.

[2] = system: HT29; experiment: NCI-60 in vitro tumor cell screen, HT29; type: cell-based; settings: Homo sapiens, HT-29; HT29, Colon Cancer
Method: as §1, §2

[3] = system: BT-549; experiment: NCI-60 in vitro tumor cell screen, BT-549; type: cell-based; settings: Homo sapiens; BT-549, Breast Cancer
Method: as §1, §2

[4] = system: HCT-116; experiment: NCI-60 in vitro tumor cell screen, HCT-116; type: cell-based; settings: Homo sapiens; HCT-116, Colon Cancer; measured by NCI after 72 h treatment
Method: as §1, §2

[5] = system: SW-620; experiment: NCI-60 in vitro tumor cell screen, SW-620; type: cell-based; settings: Homo sapiens; SW-620, Colon Cancer
Method: as §1, §2

[6] = system: KM12; experiment: NCI-60 in vitro tumor cell screen, KM12; type: cell-based; settings: Homo sapiens; KM12, Colon Cancer
Method: as §1, §2

[7] = system: HCT-116 colorectal carcinoma cells; experiment: MTT viability assay, HCT-116 cells, 24 h; type: cell-based; settings: Homo sapiens, 5–100 μM, read-out: GI50 after 24 h treatment
Method: Nortopsentin analogues, prepared as described above, were dissolved in dimethyl sulfoxide (DMSO) and then diluted in culture medium to have a DMSO concentration not exceeding 0.1%. HCT-116 and Caco-2 cell lines were purchased from American Type Culture Collection, Rockville, MD, USA and DMEM supplemented with […], […] bovine serum (FBS), penicillin (100 U/mL), streptomycin (100 μg/mL) and gentamicin (5 μg/mL). Cells were maintained in log phase by seeding twice a week at a density of 3 × 10^8 cells/L in humidified 5% CO2 atmosphere, at 37 °C. In all experiments, HCT-116 cells were made quiescent through overnight incubation before treatment with tested compounds or vehicle alone (control cells), while Caco-2 cells were treated 15 days after confluence, at which time the cells are differentiated in normal intestinal-like cells. […]
Cytotoxic activity of the nortopsentin derivatives 1k and 4c was determined by the colorimetric assay based on the reduction of […] (MTT) to purple formazan by mitochondrial dehydrogenases. […] Cells were incubated 2 h at 37 °C, then medium was discarded by centrifugation, formazan blue formed in the cells dissolved in DMSO, and absorbance measured at 570 nm in a microplate reader (Bio-RAD, Hercules, CA, USA). […] GI50 was calculated by the curve of percent viability vs. concentration. […]

[8] = system: OVCAR-4; experiment: NCI-60 in vitro tumor cell screen, OVCAR-4; type: cell-based; settings: Homo sapiens; OVCAR-4, Ovarian Cancer
Method: as §1, §2

[9] = system: NCI-H522; experiment: NCI-60 in vitro tumor cell screen, NCI-H522; type: cell-based; settings: Homo sapiens; NCI-H522, Non-Small Cell Lung Cancer
Method: as §1, §2

[10] = system: NCI/ADR-RES; experiment: NCI-60 in vitro tumor cell screen, NCI/ADR-RES; type: cell-based; settings: Homo sapiens, Ovarian Cancer
Method: as §1, §2

[11] = system: K-562; experiment: NCI-60 in vitro tumor cell screen, K-562; type: cell-based; settings: Homo sapiens, K562; K-562, Leukemia
Method: as §1, §2

[12] = system: MDA-MB-435; experiment: NCI-60 in vitro tumor cell screen, MDA-MB-435; type: cell-based; settings: Homo sapiens; MDA-MB-435, Melanoma
Method: as §1, §2

[13] = system: NCI-H322M; experiment: NCI-60 in vitro tumor cell screen, NCI-H322M; type: cell-based; settings: Homo sapiens, Non-Small Cell Lung Cancer
Method: as §1, §2

[14] = system: M14; experiment: NCI-60 in vitro tumor cell screen, M14; type: cell-based; settings: Homo sapiens; M14, Melanoma
Method: as §1, §2

[15] = system: SR; experiment: NCI-60 in vitro tumor cell screen, SR; type: cell-based; settings: Homo sapiens, Leukemia
Method: as §1, §2

[16] = system: HCT-116 cells; experiment: Acidic vesicular organelles by acridine orange staining (FACS); type: cell-based, human; settings: 24 h
Method: AO is a fluorescent molecule used either to identify apoptotic cell death or autophagy. It can interact with DNA emitting green fluorescence or accumulate in acidic organelles where it is protonated forming aggregates that emit bright red fluorescence. Briefly, cells were stained with a AO solution (5 μg/mL) for 15 min. Then they were washed, re-suspended in PBS and subjected to FACS analysis. The green (510–530 nm, FL-1) and red (650 nm, FL-3) fluorescence of AO with blue (488 nm) excitation was determined over 10,000 events.

[17] = system: UO-31; experiment: NCI-60 in vitro tumor cell screen, UO-31; type: cell-based; settings: Homo sapiens; UO-31, Renal Cancer
Method: as §1, §2

[18] = system: UACC-257; experiment: NCI-60 in vitro tumor cell screen, UACC-257; type: cell-based; settings: Homo sapiens; UACC-257, Melanoma
Method: as §1, §2

[19] = system: SK-MEL-28; experiment: NCI-60 in vitro tumor cell screen, SK-MEL-28; type: cell-based; settings: Homo sapiens; SK-MEL-28, Melanoma
Method: as §1, §2

[20] = system: COLO-205; experiment: NCI-60 in vitro tumor cell screen, COLO-205; type: cell-based; settings: Homo sapiens; COLO-205, Colon Cancer
Method: as §1, §2

[21] = system: SN12C; experiment: NCI-60 in vitro tumor cell screen, SN12C; type: cell-based; settings: Homo sapiens, Renal Cancer
Method: as §1, §2

| Compound | GI50 [2] [µM] | GI50 [3] [µM] | GI50 [4] [µM] | GI50 [5] [µM] | GI50 [6] [µM] | GI50 [7] [µM] | GI50 [8] [µM] | GI50 [9] [µM] | GI50 [10] [µM] | GI50 [11] [µM] | GI50 [12] [µM] | GI50 [13] [µM] | GI50 [14] [µM] | further results |
| --- | --- | --- | --- | --- | --- | --- | --- | --- | --- | --- | --- | --- | --- | --- |
| Cn1cc(-c2csc(-c3c[nH]c4ncccc34)n2)c2cc(Br)cnc21 [Compound 1k, 5-Bromo-1-methyl-3-[2-(1H-pyrrolo[2,3-b]pyridin-3-yl)-1,3-thiazol-4-yl]-1H-pyrrolo[2,3-b]pyridine] | 6.75 | 20.5 | 2.91 | 4.46 | 5.7 | 33.5 ± 2.31 | 2.03 | 4.86 | 3.88 | 8.76 | 3.17 | > 100 | 4.06 | GI50 [1]: 3.01 µM |
| Clc1nccc2c(-c3csc(-c4c[nH]c5ccc(Br)cc45)n3)c[nH]c12 [Compound 4c, 3-[2-(5-Bromo-1H-indol-3-yl)-1,3-thiazol-4-yl]-7-chloro-1H-pyrrolo[2,3-c]pyridine] | 2.66 | 4.7 | 2.35 | 1.92 | 2.15 | 13.2 ± 0.95 | 3.25 | 2.28 | 2.71 | 2.73 | 3.43 | 3.54 | 2.22 | GI50 [15]: 1.27 µM; increase of the bright red to green fluorescence intensity ratio of acridine orange ([16]; concentration GI30, vs control): 10 fold; percent of cells with AVO with respect to control ([16]; highest drug concentration): did not significantly modify; GI50 [17]: 0.93 µM; GI50 [18]: 2.68 µM; GI50 [19]: 1.85 µM; GI50 [20]: 1.8 µM; GI50 [21]: 3.35 µM |
